Experimental findings from US12378186B2, “Inhibitors of meprin α and β” (VIVORYON THERAPEUTICS N.V., priority 2016, dated 2025) are described below.

Where two headings read alike, the source gives them in different places.

One assay has as its target T1, hMeprin β (Homo sapiens, UniProt Q16820).
T1 sequence (Q16820 62-701): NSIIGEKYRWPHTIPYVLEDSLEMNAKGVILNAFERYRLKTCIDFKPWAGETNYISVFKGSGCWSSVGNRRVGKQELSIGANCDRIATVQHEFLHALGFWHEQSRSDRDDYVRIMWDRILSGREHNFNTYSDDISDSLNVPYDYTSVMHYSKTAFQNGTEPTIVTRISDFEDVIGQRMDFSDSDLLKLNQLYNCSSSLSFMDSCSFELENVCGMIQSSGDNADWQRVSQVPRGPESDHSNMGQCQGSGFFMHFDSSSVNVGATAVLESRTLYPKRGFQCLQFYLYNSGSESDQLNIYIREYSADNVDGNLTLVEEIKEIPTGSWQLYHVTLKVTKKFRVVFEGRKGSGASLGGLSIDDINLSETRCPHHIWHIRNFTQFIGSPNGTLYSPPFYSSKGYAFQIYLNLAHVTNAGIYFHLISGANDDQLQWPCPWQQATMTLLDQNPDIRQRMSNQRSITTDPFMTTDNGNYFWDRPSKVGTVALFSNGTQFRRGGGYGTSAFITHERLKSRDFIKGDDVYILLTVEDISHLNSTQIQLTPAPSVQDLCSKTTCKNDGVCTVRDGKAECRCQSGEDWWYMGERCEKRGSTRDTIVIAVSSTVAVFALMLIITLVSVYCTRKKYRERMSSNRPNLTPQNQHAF
In words: Enzymatic assay, cleavage of internally quenched peptide substrate, hMeprin β. The format is biochemical.

Another assay has as its target T2, hMeprin α (Homo sapiens, UniProt Q16819).
T2 sequence (Q16819 66-746): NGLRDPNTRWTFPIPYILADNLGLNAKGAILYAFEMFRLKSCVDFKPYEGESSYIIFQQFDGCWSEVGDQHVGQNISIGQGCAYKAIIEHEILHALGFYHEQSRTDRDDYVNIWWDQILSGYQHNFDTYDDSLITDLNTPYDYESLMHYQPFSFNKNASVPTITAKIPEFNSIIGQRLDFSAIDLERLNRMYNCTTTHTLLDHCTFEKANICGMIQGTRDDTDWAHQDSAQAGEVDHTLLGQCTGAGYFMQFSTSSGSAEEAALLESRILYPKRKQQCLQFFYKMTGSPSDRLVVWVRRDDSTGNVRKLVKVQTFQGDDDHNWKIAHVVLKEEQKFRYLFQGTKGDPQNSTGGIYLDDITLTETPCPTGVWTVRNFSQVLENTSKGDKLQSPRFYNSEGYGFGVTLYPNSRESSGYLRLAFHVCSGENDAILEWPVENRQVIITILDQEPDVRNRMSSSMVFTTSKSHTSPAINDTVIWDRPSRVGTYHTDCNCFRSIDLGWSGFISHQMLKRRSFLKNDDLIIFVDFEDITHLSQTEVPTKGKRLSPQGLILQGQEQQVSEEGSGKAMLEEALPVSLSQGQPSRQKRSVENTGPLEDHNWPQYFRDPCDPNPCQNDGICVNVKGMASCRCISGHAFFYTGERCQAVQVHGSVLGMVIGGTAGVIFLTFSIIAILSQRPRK
In words: biochemical. To be noted: 30° C., 40 mM HEPES pH 7.4; for IC50: average IC50, 10 μM substrate, read-out: Meprin Alpha IC50; for Ki: average Ki, 4 substrate concentrations (5-40 μM), read-out: Meprin Alpha Ki. The format is biochemical.

`O=C(CCN(Cc1ccccc1)Cc1ccccc1)NO` [Example 71, 3-(dibenzylamino) propanehydroxamic acid] displayed an IC50 against hMeprin β of 75500 nM. Moreover, on hMeprin α, the IC50 was determined as 1680 nM and the Ki worked out at 612 nM.

`O=C(CN(Cc1cccc(OC(F)F)c1)Cc1cccc(OC(F)F)c1)NO` [Example 72]: the IC50 on hMeprin β (average IC50, 10 μM substrate, 30° C., 40 mM Tris pH 8.0, read-out: Meprin Beta IC50) was 57000 nM. Also, at hMeprin α, the IC50 is 5680 nM and the Ki came to 2150 nM.

In the case of `O=C(CN(Cc1cccnc1)Cc1cccnc1)NO` [Example 73, 2-[bis(3-pyridylmethyl)amino]ethanehydroxamic acid], the IC50 against hMeprin β turned out to be 21700 nM; at hMeprin α, 1960 nM. Further, the inhibition constant (Ki) at hMeprin α worked out at 637 nM.

On hMeprin β, `O=C(CCN(Cc1ccc2c(c1)OCO2)Cc1ccc2c(c1)OCO2)NO` [Example 74, 3-[bis(1,3-benzodioxol-5-ylmethyl)amino]-propanehydroxamic acid] showed a Ki of 1150 nM. Besides, on hMeprin α, the IC50 was determined as 150 nM and the Ki worked out at 52 nM.

Broadly, the IC50 is the concentration that inhibits the measured activity by half. As a reminder, the Ki is the equilibrium dissociation constant of an inhibitor or competing ligand from its target.
